Laboratory results taken from PubChem BioAssay AID463131 (The Scripps Research Institute Molecular Screening Center, 2010).

Molecular target: Protein phosphatase methylesterase 1 (Homo sapiens) (UniProt Q9Y570)
Experiment: PME-1 inhibition in intact cells, late-stage follow-up, cell-based, fluorescence (AID 463131)
Settings: fluorescent probe labeling of PME-1, at 0.5 µM, active compounds read high

Sequence of Protein phosphatase methylesterase 1 (Homo sapiens) (Q9Y570 whole entry, looked up): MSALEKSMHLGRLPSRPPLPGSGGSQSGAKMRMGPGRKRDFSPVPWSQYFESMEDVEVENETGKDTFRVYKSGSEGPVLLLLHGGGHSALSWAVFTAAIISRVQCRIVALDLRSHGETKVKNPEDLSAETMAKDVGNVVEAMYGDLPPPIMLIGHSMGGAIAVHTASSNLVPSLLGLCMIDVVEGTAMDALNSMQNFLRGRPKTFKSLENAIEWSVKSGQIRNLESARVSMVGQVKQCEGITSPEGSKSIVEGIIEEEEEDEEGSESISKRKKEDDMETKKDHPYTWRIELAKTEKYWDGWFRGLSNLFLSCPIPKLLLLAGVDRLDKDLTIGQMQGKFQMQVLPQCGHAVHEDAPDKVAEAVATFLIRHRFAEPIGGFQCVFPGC

Structure (SMILES): COC(=O)N1C(=O)[C@](c2ccccc2)(C2CCCCC2)N1C(=O)OC
- inhibition: 100%

Structure (SMILES): COC(=O)N1C(=O)[C@](c2ccccc2)(C2CCCC2)N1C(=O)OC
- inhibition: 100%
